ChEMBL document CHEMBL3045835, “Comparative study of conventional and microwave-assisted synthesis of some Schiff bases and their potential as antimicrobial agents” (2012)
≈ marks a conversion by molar mass, not a printed value.

Key:
Assay type in all cases: functional
Bacillus subtilis [1] = assay: Antibacterial activity against Bacillus subtilis MTCC 441 at 100 ug/ml after 18 hr by cup plate method; conditions: MTCC 441, 18 h, read-out: DIZ
Escherichia coli [2] = assay: Antibacterial activity against Escherichia coli MTCC 1573 at 100 ug/ml after 18 hr by cup-plate method; conditions: MTCC 1573, 18 h, read-out: DIZ
Bacillus subtilis [3] = assay: Antibacterial activity against Bacillus subtilis MTCC 441 after 24 hr by broth dilution method; conditions: MTCC 441, 24 h
Pseudomonas fluorescens [4] = assay: Antibacterial activity against Pseudomonas fluorescens MTCC 2421 at 1500 ug/ml after 18 hr by cup-plate method; conditions: MTCC 2421, 18 h, read-out: DIZ
Micrococcus luteus [5] = assay: Antibacterial activity against Micrococcus luteus MTCC 1538 at 1500 ug/ml after 18 hr by cup-plate method; conditions: MTCC 1538, 18 h, read-out: DIZ
Pseudomonas aeruginosa [6] = assay: Antibacterial activity against Pseudomonas aeruginosa MTCC 424 at 1500 ug/ml after 18 hr by cup-plate method; conditions: MTCC 424, 18 h, read-out: DIZ
Escherichia coli [7] = assay: Antibacterial activity against Escherichia coli MTCC 1573 at 1000 ug/ml after 18 hr by cup-plate method; conditions: MTCC 1573, 18 h, read-out: DIZ
Staphylococcus aureus [8] = assay: Antibacterial activity against Staphylococcus aureus MTCC 1430 at 1000 ug/ml after 18 hr by cup-plate method; conditions: MTCC 1430, 18 h, read-out: DIZ
Penicillium chrysogenum [9] = assay: Antifungal activity against Penicillium chrysogenum MTCC 161 at 1500 ug/ml after 18 hr by cup-plate method; conditions: MTCC 161, 18 h, read-out: DIZ
Pseudomonas aeruginosa [10] = assay: Antibacterial activity against Pseudomonas aeruginosa MTCC 424 at 100 ug/ml after 18 hr by cup-plate method; conditions: MTCC 424, 18 h, read-out: DIZ
Micrococcus luteus [11] = assay: Antibacterial activity against Micrococcus luteus MTCC 1538 at 500 ug/ml after 18 hr by cup-plate method; conditions: MTCC 1538, 18 h, read-out: DIZ
Bacillus pumilus [12] = assay: Antibacterial activity against Bacillus pumilus MTCC 1456 after 24 hr by broth dilution method; conditions: MTCC 1456, 24 h
Bacillus subtilis [13] = assay: Antibacterial activity against Bacillus subtilis MTCC 441 at 500 ug/ml after 18 hr by cup plate method; conditions: MTCC 441, 18 h, read-out: DIZ
Pseudomonas aeruginosa [14] = assay: Antibacterial activity against Pseudomonas aeruginosa MTCC 424 at 200 ug/ml after 18 hr by cup-plate method; conditions: MTCC 424, 18 h, read-out: DIZ
Penicillium chrysogenum [15] = assay: Antifungal activity against Penicillium chrysogenum MTCC 161 at 100 ug/ml after 18 hr by cup-plate method; conditions: MTCC 161, 18 h, read-out: DIZ
Staphylococcus aureus [16] = assay: Antibacterial activity against Staphylococcus aureus MTCC 1430 at 100 ug/ml after 18 hr by cup-plate method; conditions: MTCC 1430, 18 h, read-out: DIZ
Escherichia coli [17] = assay: Antibacterial activity against Escherichia coli MTCC 1573 at 1500 ug/ml after 18 hr by cup-plate method; conditions: MTCC 1573, 18 h, read-out: DIZ
Aspergillus niger = assay: Antifungal activity against Aspergillus niger MTCC 2546 at 1000 ug/ml after 18 hr by cup-plate method; conditions: MTCC 2546, 18 h, read-out: DIZ
Pseudomonas fluorescens [18] = assay: Antibacterial activity against Pseudomonas fluorescens MTCC 2421 after 24 hr by broth dilution method; conditions: MTCC 2421, 24 h
Escherichia coli [19] = assay: Antibacterial activity against Escherichia coli MTCC 1573 at 200 ug/ml after 18 hr by cup-plate method; conditions: MTCC 1573, 18 h, read-out: DIZ
Escherichia coli [20] = assay: Antibacterial activity against Escherichia coli MTCC 1573 after 24 hr by broth dilution method; conditions: MTCC 1573, 24 h
Bacillus pumilus [21] = assay: Antibacterial activity against Bacillus pumilus MTCC 1456 at 100 ug/ml after 18 hr by cup-plate method; conditions: MTCC 1456, 18 h, read-out: DIZ
Micrococcus luteus [22] = assay: Antibacterial activity against Micrococcus luteus MTCC 1538 after 24 hr by broth dilution method; conditions: MTCC 1538, 24 h
Staphylococcus aureus [23] = assay: Antibacterial activity against Staphylococcus aureus MTCC 1430 at 500 ug/ml after 18 hr by cup-plate method; conditions: MTCC 1430, 18 h, read-out: DIZ
Bacillus subtilis [24] = assay: Antibacterial activity against Bacillus subtilis MTCC 441 at 200 ug/ml after 18 hr by cup plate method; conditions: MTCC 441, 18 h, read-out: DIZ
Staphylococcus aureus [25] = assay: Antibacterial activity against Staphylococcus aureus MTCC 1430 at 200 ug/ml after 18 hr by cup-plate method; conditions: MTCC 1430, 18 h, read-out: DIZ
Pseudomonas fluorescens [26] = assay: Antibacterial activity against Pseudomonas fluorescens MTCC 2421 at 100 ug/ml after 18 hr by cup-plate method; conditions: MTCC 2421, 18 h, read-out: DIZ

Molecule O=c1c(/C=N/c2ccc(Cl)cc2)coc2ccccc12 has a zone of inhibition at 100 µg/mL (Bacillus subtilis [1]) of 13 mm, a zone of inhibition at 100 µg/mL (Escherichia coli [2]) of 13 mm and an MIC (Bacillus subtilis [3]) of 300 µg/mL (≈ 1060 µM). The zone of inhibition at 1500 µg/mL (Pseudomonas fluorescens [4]) was 18 mm, the zone of inhibition at 1500 µg/mL (Micrococcus luteus [5]) was 24 mm and the zone of inhibition at 1500 µg/mL (Pseudomonas aeruginosa [6]) was 21 mm. It also gave a zone of inhibition at 1000 µg/mL (Escherichia coli [7]) of 19 mm, a zone of inhibition at 1000 µg/mL (Staphylococcus aureus [8]) of 18 mm and a zone of inhibition at 1500 µg/mL (Penicillium chrysogenum [9]) of 21 mm. It also gave a zone of inhibition at 100 µg/mL (Pseudomonas aeruginosa [10]) of 16 mm, a zone of inhibition at 500 µg/mL (Micrococcus luteus [11]) of 21 mm and an MIC (Bacillus pumilus [12]) of 200 µg/mL (≈ 705 µM). The zone of inhibition at 500 µg/mL (Bacillus subtilis [13]) was 17 mm, the zone of inhibition at 200 µg/mL (Pseudomonas aeruginosa [14]) was 18 mm and the zone of inhibition at 100 µg/mL (Penicillium chrysogenum [15]) was 15 mm. For the same molecule, the zone of inhibition at 100 µg/mL (Staphylococcus aureus [16]) was 12 mm, the zone of inhibition at 1500 µg/mL (Escherichia coli [17]) was 20 mm and the zone of inhibition at 1000 µg/mL (Aspergillus niger) was 20 mm. For the same molecule, the MIC (Pseudomonas fluorescens [18]) was 300 µg/mL (≈ 1060 µM), the zone of inhibition at 200 µg/mL (Escherichia coli [19]) was 16 mm and the MIC (Escherichia coli [20]) was 400 µg/mL (≈ 1410 µM). The zone of inhibition at 100 µg/mL (Bacillus pumilus [21]) was 12 mm, the MIC (Micrococcus luteus [22]) was 200 µg/mL (≈ 705 µM) and the zone of inhibition at 500 µg/mL (Staphylococcus aureus [23]) was 16 mm. It also gave a zone of inhibition at 200 µg/mL (Bacillus subtilis [24]) of 15 mm, a zone of inhibition at 200 µg/mL (Staphylococcus aureus [25]) of 14 mm and a zone of inhibition at 100 µg/mL (Pseudomonas fluorescens [26]) of 11 mm.
